Experimental data: patent US10766864B2, “Morphinan derivatives for the treatment of neuropathic pain” (Nektar Therapeutics, priority 2015, dated 2020)
Read-outs that look alike come from different tables or passages of the source.

Columns and labels:
mu opioid receptor (MOR) = mu opioid receptor (MOR) (Homo sapiens (Human), UniProt P35372); test: Competitive radioligand binding at MOR ([3H] Naloxone)
Protocol: (§1) Receptor Binding at MOR and NMDA.
(§2) Affinities of various compounds were measured in vitro using competitive radioligand binding assays. Serial dilutions of test compounds were incubated with membranes prepared from CHO-K1 cells expressing the mu opioid receptor (MOR; for opioid receptor binding) or rat forebrain membranes (for NMDA receptor binding). 2 nM [^3H] Naloxone (MOR) or 0.2 nM [^3H] MK801 (NMDA) were used as the specific, competitive radioligands. 10 uM Naloxone (MOR), or 10 uM MK801 (NMDA) was used to determine non-specific binding. Bound radioactivity was measured using a scintillation counter & IC50 values for test compounds were determined by non-linear regression analysis using a one-site competition model (Graph Pad Prizm). Due to each test compound being solubilized in a buffered system for the assay, the results presented herein reflect the free base activity.

NMDA receptor = test: Competitive radioligand binding at NMDA receptor ([3H] MK801), rat forebrain membranes; conditions: 0.2 nM [3H] MK801, reflects free base activity
Protocol: as §1, §2

[1] = membranes from CHO-K1 cells expressing MOR, 2 nM [3H] Naloxone, reflects free base activity, read-out: MOR IC50

SMILES	IC50 (mu opioid receptor (MOR))	IC50 (NMDA receptor)	IC50 (mu opioid receptor (MOR); [1])
COCCN1CC[C@]23CCCC[C@H]2[C@H]1Cc1ccc(Nc2ccncc2)cc13 [Compound 93, 17-(2-methoxyethyl)-N-(pyridin-4-yl)morphinan-3-amine]	10 to 100 nM	0.1 to 100 nM	–
COCCOCCOCCN1CC[C@]23CC(=O)CC[C@H]2[C@H]1Cc1ccc(O)cc13 [Compound 6, 3-hydroxy-17-{2-[2-(2-methoxyethoxy)ethoxy]ethyl}morphinan-6-one]	100 to 1000 nM	> 10000 nM	–
COCCNC(=N)Nc1nc2cc3c(cc2s1)C[C@@H]1[C@@H]2CCCC[C@]32CCN1C [Compound 92, 1-(2-methoxyethyl)-3-((4aR,5R,11bR)-14-methyl-2,3,4,4a,5,6-hexahydro-1H-5,11b-(epiminoethano)phenanthro[3,2-d]thiazol-9-yl)guanidine]	–	> 10000 nM	100 to 1000 nM
COCCOCCN1CC[C@]23CCCC[C@H]2[C@H]1Cc1ccc(N)cc13 [Compound 96, (4bR,8aR,9R)-11-(2-(2-methoxyethoxy)ethyl)-6,7,8,8a,9,10-hexahydro-5H-9,4b-(epiminoethano)phenanthren-3-amine]	–	> 10000 nM	> 1000 nM
CN1CC[C@]23CCCC[C@H]2[C@H]1Cc1ccc(Nc2ccnnc2)cc13 [Compound 56, 17-methyl-N-(pyridazin-4-yl)morphinan-3-amine]	100 to 1000 nM	0.1 to 100 nM	–
COCCOCCOCCNc1nc2cc3c(cc2s1)C[C@@H]1[C@@H]2CCCC[C@]32CCN1C [Compound 71, (4aR,5R,11bR)—N-(2-(2-(2-methoxyethoxy)ethoxy)ethyl)-14-methyl-2,3,4,4a,5,6-hexahydro-1H-5,11b-(epiminoethano)phenanthro[3,2-d]thiazol-9-amine]	–	1000 to 10000 nM	100 to 1000 nM
CCNC(=O)N1CC[C@]23CCCC[C@H]2[C@H]1Cc1ccc(OC)cc13 [Compound 17, N-ethyl-3-methoxymorphinan-17-carboxamide]	–	> 10000 nM	> 1000 nM
CN1CC[C@]23CCCC[C@H]2[C@H]1Cc1ccc(Nc2ncccn2)cc13 [Compound 32, 17-methyl-N-(pyrimidin-2-yl)morphinan-3-amine]	–	100 to 1000 nM	> 1000 nM
Oc1ccc2c(c1)[C@@]13CCCC[C@H]1[C@@H](C2)N(CC1COC1)CC3 [Compound 88, 17-(oxetan-3-ylmethyl)morphinan-3-ol]	10 to 100 nM	1000 to 10000 nM	–
COCCOCCOc1cccc(Nc2ccc3c(c2)[C@@]24CCCC[C@H]2[C@@H](C3)N(C)CC4)c1 [Compound 34, N-{3-[2-(2-methoxyethoxy)ethoxy]phenyl}-17-methylmorphinan-3-amine]	–	> 10000 nM	0.1 to 10 nM
COCCOCCOCCOCCOCCO[C@H]1CC[C@H]2[C@H]3Cc4ccc(O)cc4[C@@]2(CCN3C)C1 [Compound 10, (6α)-17-methyl-6-(2,5,8,11,14-pentaoxahexadecan-16-yloxy)morphinan-3-ol]	–	> 10000 nM	100 to 1000 nM
CN1CC[C@]23CCCC[C@H]2[C@H]1Cc1ccc(Nc2cnccn2)cc13 [Compound 55, 17-methyl-N-(pyrazin-2-yl)morphinan-3-amine]	0.1 to 10 nM	> 10000 nM	–
CN1CC[C@]23CCCC[C@H]2[C@H]1Cc1cc2nc(N)[nH]c2cc13 [Compound 82, (4aR,5R,11bR)-14-methyl-1,2,3,4,4a,5,6,10-octahydro-5,11b-(epiminoethano)phenanthro[2,3-d]imidazol-9-amine]	–	> 10000 nM	100 to 1000 nM
COCCOCCOc1ccccc1Nc1ccc2c(c1)[C@@]13CCCC[C@H]1[C@@H](C2)N(C)CC3 [Compound 35, N-{2-[2-(2-methoxyethoxy)ethoxy]phenyl}-17-methylmorphinan-3-amine]	–	> 10000 nM	100 to 1000 nM
COCCNC(=O)Nc1ccc2c(c1)[C@@]13CCCC[C@H]1[C@@H](C2)N(C)CC3 [Compound 23, 1-(2-methoxyethyl)-3-(17-methylmorphinan-3-yl)urea]	100 to 1000 nM	> 10000 nM	–
COCCOCCOc1cncc(Nc2ccc3c(c2)[C@@]24CCCC[C@H]2[C@@H](C3)N(C)CC4)c1 [Compound 48, N-{5-[2-(2-methoxyethoxy)ethoxy]pyridin-3-yl}-17-methylmorphinan-3-amine]	–	> 10000 nM	10 to 100 nM
COCCOCCOc1cnccc1Nc1ccc2c(c1)[C@@]13CCCC[C@H]1[C@@H](C2)N(C)CC3 [Compound 66, (4bR,8aR,9R)—N-(3-(2-(2-methoxyethoxy)ethoxy)pyridin-4-yl)-11-methyl-6,7,8,8a,9,10-hexahydro-5H-9,4b-(epiminoethano)phenanthren-3-amine]	–	1000 to 10000 nM	100 to 1000 nM

SMILES	IC50 (mu opioid receptor (MOR))	IC50 (NMDA receptor)	IC50 (mu opioid receptor (MOR); [1])
COCCOCCOCCN1CC[C@]23CC(=O)CC[C@H]2[C@H]1Cc1ccc(OC)cc13 [Compound 4, 3-methoxy-17-{2-[2-(2-methoxyethoxy)ethoxy]ethyl}morphinan-6-one]	–	> 10000 nM	> 1000 nM
CN1CC[C@]23CCCC[C@H]2[C@H]1Cc1cc2cccnc2cc13 [Compound 89, (4aR,5R,12bR)-15-methyl-2,3,4,4a,5,6-hexahydro-1H-5,12b-(epiminoethano)naphtho[2,1-g]quinoline]	–	1000 to 10000 nM	100 to 1000 nM
CN1CC[C@]23CCCC[C@H]2[C@H]1Cc1cc2ccc(N)nc2cc13 [Compound 101, (4aR,5R,12bR)-15-methyl-2,3,4,4a,5,6-hexahydro-1H-5,12b-(epiminoethano)naphtho[2,1-g]quinolin-10-amine]	–	1000 to 10000 nM	10 to 100 nM
Oc1ccc2c(c1)[C@@]13CCCC[C@H]1[C@@H](C2)N(C1COC1)CC3 [Compound 87, 17-(oxetan-3-yl)morphinan-3-ol]	–	> 10000 nM	> 1000 nM
COCCOCCOCCO[C@H]1CCC[C@H]2[C@H]3Cc4ccc(O)cc4[C@@]12CCN3C [Compound 75, (5α)-5-{2-[2-(2-methoxyethoxy)ethoxy]ethoxy}-17-methylmorphinan-3-ol]	–	> 10000 nM	10 to 100 nM
CN1CC[C@]23CCCC[C@H]2[C@H]1Cc1ccc(N(c2ccccn2)c2ccccn2)cc13 [Compound 57, 17-methyl-N,N-di(pyridin-2-yl)morphinan-3-amine]	–	1000 to 10000 nM	> 1000 nM
COCCOCCOCCOCCOCCOc1ccc2c(c1)[C@]13CCN(C)[C@H](C2)[C@@H]1CCC(=O)C3 [Compound 8, 17-methyl-3-(2,5,8,11,14-pentaoxahexadecan-16-yloxy)morphinan-6-one]	–	> 10000 nM	> 1000 nM
COCCOCCOCC(=O)Nc1nc2cc3c(cc2s1)C[C@@H]1[C@@H]2CCCC[C@]32CCN1C [Compound 68, 2-[2-(2-methoxyethoxy)ethoxy]-N— [(4aR,5R,11bR)-14-methyl-2,3,4,4a,5,6-hexahydro-1H-5,11b-(epiminoethano)phenanthro[3,2-d][1,3]thiazol-9-yl]acetamide]	–	1000 to 10000 nM	> 1000 nM
COCCOCCOCCO[C@H]1CC[C@H]2[C@H]3Cc4ccc(O)cc4[C@@]2(CCN3C)C1 [Compound 9, (6α)-6-{2-[2-(2-methoxyethoxy)ethoxy]ethoxy}-17-methylmorphinan-3-ol]	10 to 100 nM	> 10000 nM	–
Oc1ccc2c(c1)[C@@]13CCCC[C@H]1[C@@H](C2)N(CC1CCO1)CC3 (stereo partly drawn) [Compound 91, 17-(oxetan-2-ylmethyl)morphinan-3-ol]	0.1 to 10 nM	1000 to 10000 nM	–
CN1CC[C@]23CCCC[C@H]2[C@H]1Cc1cc2ncc(N)nc2cc13 [Compound 94, (4aR,5R,12bR)-15-methyl-2,3,4,4a,5,6-hexahydro-1H-5,12b-(epiminoethano)naphtho[1,2-g]quinoxalin-10-amine]	–	100 to 1000 nM	> 1000 nM
COCCOCCN1CC[C@]23CCCC[C@H]2[C@H]1Cc1ccc(Nc2ccncc2)cc13 [Compound 98, 17-[2-(2-methoxyethoxy)ethyl]-N-(pyridin-4-yl)morphinan-3-amine]	100 to 1000 nM	100 to 1000 nM	–
COc1ccccc1C(=O)Nc1ccc2c(c1)[C@@]13CCCC[C@H]1[C@@H](C2)N(C)CC3 [Compound 26, 2-methoxy-N-((4bR,8aR,9R)-11-methyl-6,7,8,8a,9,10-hexahydro-5H-9,4b-(epiminoethano)phenanthren-3-yl)benzamide]	–	> 10000 nM	> 1000 nM
CN1CC[C@]23CCCC[C@H]2[C@H]1Cc1ccc(-c2ccoc2)cc13 [Compound 51, 3-(3-furyl)-17-methylmorphinan]	10 to 100 nM	1000 to 10000 nM	–
COc1cccc(Nc2ccc3c(c2)[C@@]24CCCC[C@H]2[C@@H](C3)N(C)CC4)c1 [Compound 29, N-(3-methoxyphenyl)-17-methylmorphinan-3-amine]	0.1 to 10 nM	1000 to 10000 nM	–
COCCOc1c(OC)ccc2c1[C@@]13CCCC[C@H]1[C@@H](C2)N(C)CC3 [Compound 21, 3-methoxy-4-(2-methoxyethoxy)-17-methylmorphinan]	100 to 1000 nM	–	–
COCCOCCOCCOCCOCCOCCNc1nc2cc3c(cc2s1)C[C@@H]1[C@@H]2CCCC[C@]32CCN1C [Compound 70, (4aR,5R,11bR)-14-methyl-N-(2,5,8,11,14,17-hexaoxanonadecan-19-yl)-2,3,4,4a,5,6-hexahydro-1H-5,11b-(epiminoethano)phenanthro[3,2-d][1,3]thiazol-9-amine]	–	> 10000 nM	–
